Measurements reported in publication PMC6627374, “Effects of the Pentapeptide P33 on Memory and Synaptic Plasticity in APP/PS1 Transgenic Mice: A Novel Mechanism Presenting the Protein Fe65 as a Target” (International Journal of Molecular Sciences, 2019).
Several values for one entry are separate records, joined by “and”; a condition that tells them apart may be missing. Equal values may be shown once. Where a SMILES comes first, the peptide text is derived from it.

Columns and labels:
[1] = molecular target: T1, Fe65-WW domain (WW domain of Fe65) (Homo sapiens, UniProt O00213); assay: ITC binding to Fe65-WW; design: species or system human and mouse (WW domain identical); conditions: 310 K
T1 construct: made in house; host or cells: chemical solid-phase peptide synthesis (Fmoc, Rink Amide AM resin); no expression host
T1 sequence (O00213 253-285 limits assumed): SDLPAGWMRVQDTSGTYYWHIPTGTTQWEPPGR
Experimental: Synthesis of acetyl-Fe65-WW, acetyl-Pin1-WW, and the control PPPPP (structures involved in Figure 2) was carried out on a Rink Amide AM (0.3 mmol∙g^−1) resin using Fmoc chemistry and activation with HATU in the presence of DIPEA. Cleavage was achieved by a treatment with TFA/H2O/triisopropylsilane/1,4-dithio-DL-threitol/phenol (90:5:3:1:1) at room temperature (RT). TFA was removed in vacuo, the peptides were then precipitated using cold, dry diethyl-ether, dissolved in ACN/H2O and lyophilized.
Isothermal titrations were performed using a Microcal VP-ITC (Malvern Instruments, Malvern, UK) microcalorimeter. Binding experiments were carried out in degassed phosphate-buffered saline (PBS) at pH 7.4. The concentrations of Fe65-WW and Pin1-WW were normalized for the peptide contents. In one titration experiment, 10-μL portions of the ligand-containing solution (P33 or PPPPP) were injected from a computer-controlled 300-μL microsyringe at intervals of 300 s into the solution of the WW domain (Fe65-WW or Pin1-WW), dissolved in the same buffer as for the ligand. The rev of the microsyringe was set to 307 rpm. Measurements were repeated twice at 310 K. The starting concentrations of Fe65-WW and Pin1-WW in the cell were 83.5 and 81.4 μM, respectively, and the concentrations of the stock solutions containing P33 or PPPPP in the syringe were 1.006 and 1.056 mM, respectively. Control experiments were performed by injecting P33 or PPPPP into the cell containing plain buffer without the WW domain, with results achieved via subtracting the dilution heats from those measured in the presence of the WW domain.

Aβ plaques = assay: 4G8 immunohistochemistry, Aβ plaque density; format: in vivo, mouse; conditions: HC and CTX; 5 mg∙kg^−1 i.p., six months; five animals per group
Experimental: For this study, three-month-old male and female WT and APP/PS1 mice (n = 37) were used. Four groups were defined: WT-vehicle (physiological saline) (male n = 4; female n = 6), WT-P33 (male n = 6; female n = 5), APP/PS1-vehicle (male n = 3; female n = 5), and APP/PS1-P33 (male n = 6; female n = 2). Animals were subjected to intraperitoneal (i.p.) injections of P33 (5 mg∙kg^−1) for five days per week, over a course of six months. The mice were kept in groups under constant temperature (23 ± 0.5 °C), lighting (12-h/12-h light/dark cycle, lights on at 7:00 a.m.), and humidity (~50%). Standard mouse chow and tap water were supplied ad libitum. All behavioral experiments were performed in the light period. Handling was done daily at the same time.
Mice (five animals per group) were anaesthetized with chloral-hydrate (1 mg∙kg^−1) and perfused transcardially with PBS, followed by ice-cold 4% paraformaldehyde. The brains were removed, post-fixed in the same fixative, and immersed in a 30% sucrose solution containing 0.01% sodium-azide. […]
Slides were scanned by a digital slide scanner (Mirax Midi, 3DHistech Ltd., Budapest, Hungary), equipped with a Pannoramic Viewer 1.15.4, CaseViewer 2.1 program and a QuantCenter, HistoQuant module (3DHistech Ltd., Budapest, Hungary). For quantification, all of the sections were analyzed. […] Antibody-positive cell types from the ROIs were counted and quantified. […]

C[C@@H](N)C(=O)N1CCC[C@@H]1C(=O)N[C@H](C)C(=O)N1CCC[C@@H]1C(=O)N[C@H](CCC(=O)O)C(N)=O [P33] (HELM PEPTIDE1{[dA].[dP].[dA].[dP].[dE].[am]}$$$$V2.0)
selectivity of binding, Fe65-WW over Pin1-WW (in words) ([1]; PBS pH 7.4): can bind selectively to the Fe65-WW domain
ΔH ([1]; PBS pH 7.4): 0.082 ± 0.001 kcal/mol
stoichiometric factor N ([1]; PBS pH 7.4, 1:1 [P33]/[Fe65-WW] complex): 1.14 and 1.14 ± 0.01
Kd ([1]; PBS pH 7.4, Fe65-WW 83.5 μM in cell, P33 1.006 mM in syringe, measurements repeated twice, read-out: dissociation constant Kd): 4.68 ± 0.04 µM
Aβ plaque density, effect of P33 (in words) (Aβ plaques): significantly decreased the plaque density in APP/PS1-P33 mice
